Values after ≈ are worked out from the molar mass of the structure shown. Where two headings read alike, the source gives them in different places.
How the values were obtained:
[1] = system: Mycobacterium tuberculosis strain 331/88 (i.e., H37Rv); test: MIC micromethod in Šula's medium, drug-susceptible Mtb.; assay type: cell-based; conditions: Mycobacterium tuberculosis, H37RV
[2] = Cytotoxicity, CellTiter 96 (MTS) assay; conditions: human, Cytotoxicity for HepG2 cells, IC50, 24 h incubation, 1–1000 µM
[3] = system: Mycobacterium avium 330/88; test: MIC micromethod in Šula's medium, M. avium; assay type: cell-based; conditions: Mycobacterium avium
[4] = system: Mycobacterium kansasii 6509/96 (clinical isolate); test: MIC micromethod in Šula's medium, M. kansasii; assay type: cell-based; conditions: Mycobacterium kansasii
[5] = 336 h, 14 d incubation, esters, Table 1, read-out: MIC Mtb. 331/88 14 d
[6] = 504 h, 21 d incubation, esters, Table 1, read-out: MIC Mtb. 331/88 21 d
[7] = 330/88, 336 h, 14 d incubation, Table 1, read-out: MIC M. avium 330/88 14 d
[8] = 330/88, 504 h, 21 d incubation, Table 1, read-out: MIC M. avium 330/88 21 d
[9] = 168 h, 7 d incubation, Table 1, read-out: MIC M. kansasii 6509/96 7 d
[10] = 336 h, 14 d incubation, Table 1, read-out: MIC M. kansasii 6509/96 14 d
[11] = 504 h, 21 d incubation, Table 1, read-out: MIC M. kansasii 6509/96 21 d
[12] = 336 h, 14 d incubation, precursors, Table 2, read-out: MIC Mtb. 331/88 14 d
[13] = 504 h, 21 d incubation, precursors, Table 2, read-out: MIC Mtb. 331/88 21 d
[14] = 330/88, 336 h, 14 d incubation, precursors, Table 2, read-out: MIC M. avium 330/88 14 d
[15] = 330/88, 504 h, 21 d incubation, precursors, Table 2, read-out: MIC M. avium 330/88 21 d
[16] = 168 h, 7 d incubation, precursors, Table 2, read-out: MIC M. kansasii 6509/96 7 d
[17] = 336 h, 14 d incubation, precursors, Table 2, read-out: MIC M. kansasii 6509/96 14 d
[18] = 504 h, 21 d incubation, precursors, Table 2, read-out: MIC M. kansasii 6509/96 21 d
[19] = 330/88, 336 h, read-out: MIC M. avium 330/88 14 d
[20] = 330/88, 504 h, read-out: MIC M. avium 330/88 21 d
[21] = 168 h, read-out: MIC M. kansasii 6509/96 7 d
[22] = 336 h, read-out: MIC M. kansasii 6509/96 14 d
[23] = 504 h, read-out: MIC M. kansasii 6509/96 21 d

SMILES | melting point [°C] | MIC [1, 5] [µM] | MIC [1, 6] [µM] | IC50 at 24 h [2] [mM] | MIC [3, 7] [µM] | MIC [3, 8] [µM] | MIC [4, 9] [µM] | MIC [4, 10] [µM] | MIC [4, 11] [µM] | MIC [1, 12] [µM] | MIC [1, 13] [µM] | MIC [3, 14] [µM] | MIC [3, 15] [µM] | further results
C/C(=N\NC(=O)c1ccncc1)C(=O)Oc1ccccc1 [3b, Phenyl (E)-2-(2-isonicotinoylhydrazineylidene)propanoate] | 186 to 189 | 0.125 (≈ 0.0354 µg/mL) | 0.25 (≈ 0.0708 µg/mL) | > 1 | > 250 | > 250 | 8 (≈ 2.27 µg/mL) | 8 (≈ 2.27 µg/mL) | 8 (≈ 2.27 µg/mL) |  |  |  |  | 
CC(=O)Nc1ccc(O)cc1 [Paracetamol, reference compound] |  |  |  |  |  |  |  |  |  | > 1000 | > 1000 | > 1000 | > 1000 | 
Oc1cccc2ccccc12 [1-naphthol, reference compound] |  |  |  |  |  |  |  |  |  | 250 (≈ 36 µg/mL) | 500 (≈ 72.1 µg/mL) | 500 (≈ 72.1 µg/mL) | 500 (≈ 72.1 µg/mL) | MIC [4, 16]: 125 µM (≈ 18 µg/mL); MIC [4, 17]: 250 µM (≈ 36 µg/mL); MIC [4, 18]: 500 µM (≈ 72.1 µg/mL)
CC(=O)Nc1ccc(OC(=O)C(C)=NNC(=O)c2ccncc2)cc1 [3p, 4-Acetamidophenyl 2-(2-isonicotinoylhydrazineylidene)propanoate] |  | 0.25 (≈ 0.0851 µg/mL) | 0.5 (≈ 0.17 µg/mL) | > 1 | 1000 (≈ 340 µg/mL) | 1000 (≈ 340 µg/mL) | 8 (≈ 2.72 µg/mL) | 16 (≈ 5.45 µg/mL) | 16 (≈ 5.45 µg/mL) |  |  |  |  | MIC ([4]; 504 h, text summary over 7, 14 and 21 d, read-out: MIC for M. kansasii 6509/96): 8 to 16 µM (≈ 2.72 to 5.45 µg/mL)
CCSC(=O)/C(C)=N/NC(=O)c1ccncc1 [3r, S-Ethyl (E)-2-(2-isonicotinoylhydrazineylidene)propanethioate] | 158 to 160 | 0.25 (≈ 0.0628 µg/mL) | 0.25 (≈ 0.0628 µg/mL) | > 1 | 250 (≈ 62.8 µg/mL) | 500 (≈ 126 µg/mL) | 1 (≈ 0.251 µg/mL) | 2 (≈ 0.503 µg/mL) | 4 (≈ 1.01 µg/mL) |  |  |  |  | 
C/C(=N\NC(=O)c1ccncc1)C(=O)Oc1ccc(C)cc1 [3c, p-Tolyl (E)-2-(2-isonicotinoylhydrazineylidene)propanoate] | 168 to 170 | ≤ 0.25 | 0.5 (≈ 0.149 µg/mL) | > 1 | > 250 | > 250 | 8 (≈ 2.38 µg/mL) | 8 (≈ 2.38 µg/mL) | 8 (≈ 2.38 µg/mL) |  |  |  |  | 
C/C(=N\NC(=O)c1ccncc1)C(=O)Oc1ccc(Cl)cc1 [3g, 4-Chlorophenyl (E)-2-(2-isonicotinoylhydrazineylidene)propanoate] | 184 to 186.1 | ≤ 0.125 | ≤ 0.125 | > 1 | 500 (≈ 159 µg/mL) | 1000 (≈ 318 µg/mL) | 4 (≈ 1.27 µg/mL) | 8 (≈ 2.54 µg/mL) | 16 (≈ 5.08 µg/mL) |  |  |  |  | 
Oc1cc(Cl)ccc1Oc1ccc(Cl)cc1Cl [Triclosan, 5-chloro-2-(2,4-dichlorophenoxy)phenol, reference compound] |  |  |  |  |  |  |  |  |  | 32 (≈ 9.27 µg/mL) | 32 (≈ 9.27 µg/mL) |  |  | MIC [3, 19]: 64 µM (≈ 18.5 µg/mL); MIC [3, 20]: 64 µM (≈ 18.5 µg/mL); MIC [4, 21]: 16 µM (≈ 4.63 µg/mL); MIC [4, 22]: 32 µM (≈ 9.27 µg/mL); MIC [4, 23]: 32 µM (≈ 9.27 µg/mL)
Oc1ccc(Oc2ccccc2)cc1 [4-phenoxyphenol, reference compound] |  |  |  |  |  |  |  |  |  | 64 (≈ 11.9 µg/mL) | 64 (≈ 11.9 µg/mL) | 250 (≈ 46.6 µg/mL) | 500 (≈ 93.1 µg/mL) | MIC [4, 16]: 32 µM (≈ 5.96 µg/mL); MIC [4, 17]: 64 µM (≈ 11.9 µg/mL); MIC [4, 18]: 125 µM (≈ 23.3 µg/mL)
Cc1ncc([N+](=O)[O-])n1CCO [Metronidazole, reference compound] |  |  |  |  |  |  |  |  |  | > 1000 | > 1000 | > 1000 | > 1000 | MIC [4, 16]: 1000 µM (≈ 171 µg/mL); MIC [4, 17]: > 1000 µM; MIC [4, 18]: > 1000 µM
Cc1ccc(C(C)C)cc1O [Carvacrol, reference compound] |  |  |  |  |  |  |  |  |  | 125 (≈ 18.8 µg/mL) | 250 (≈ 37.6 µg/mL) |  |  | MIC [3, 19]: 250 µM (≈ 37.6 µg/mL); MIC [3, 20]: 500 µM (≈ 75.1 µg/mL); MIC [4, 21]: 125 µM (≈ 18.8 µg/mL); MIC [4, 22]: 250 µM (≈ 37.6 µg/mL); MIC [4, 23]: 500 µM (≈ 75.1 µg/mL)
